Experimental data reported in patent publication US10988481B2, “Potent and selective mu opioid receptor modulators” (VIRGINIA COMMONWEALTH UNIVERSITY, priority 2016, dated 2021).
Like-named read-outs stand apart in the source and are kept apart here.

How the values were obtained:
DOR = DOR (Homo sapiens (Human), UniProt P41143); assay: Competition binding assay at DOR ([3H]DPN, CHO cell membranes)
Experimental: (§1) Chinese hamster ovary (CHO) cells expressing MOR, KOR and DOR were cultured for use in this assay. The culture media used for MOR CHO cells contained 500 mL DMEM/F12 media, 10% FBS, 1% penicillin/streptomycin, and 2.75 mL G418. The DOR and KOR CHO cells were cultured in the same media except that 5% FBS was used instead of 10%. The cells are allowed to grow until they are 80-95% confluent after which they are split. The cells are continuously cultured and split until there were sufficient cells for the studies.
(§2) Once the cells reached confluence, cells were harvested, centrifuged at 1000×g for 10 minutes, and suspended in membrane buffer (50 mM Tris, 3 mM MgCl2, and 1 mM EGTA, pH 7.4). The cells were then homogenized, centrifuged at 50000×g for 10 minutes, and re-homogenized in membrane buffer. A Bradford assay was conducted to determine membrane protein concentrations, and membrane protein preps (3 μg/aliquot) were stored at −80° C.
(§3) The competition binding assay was conducted to determine the affinity and selectivity of the synthesized compounds to MOR over KOR and DOR. The Kd and Bmax values for [^3H]NLX at MOR and [^3H]DPN at KOR had been determined previously. […] [^3H]NLX was used to label MOR whilst [^3H]DPN was used to label both DOR and KOR. The potency of the new compounds in displacing the specific binding of the radioligand was determined by linear regression analysis of Hill plots. […] The IC50 values were determined and converted to Ki values using the Cheng—Prusoff equation (Rosenblum, A. et al. Exp Clin Psychopharmacol. 2008, 16 (5), 405-416).

MOR = MOR (Mus musculus, UniProt P42866); format: biochemical; conditions: relative to 3 μM DAMGO at MOR
Experimental: The [^35S]GTPγS functional assay was used to determine whether the synthesized compounds are agonists. The agonist's activity of the compounds was measured relative to 3 μM DAMGO at MOR. In this assay, upon receptor activation due to agonist binding, [^35S]GTPγS binds to the Gα subunit. Thus, [^35S]GTPγS replaces endogenous GTP and since the γ-thiophosphate bond is resistant to hydrolysis by GTPase, [^35S]GTPγS labelled Gα subunits accumulate and can be quantified by measuring the amount of incorporated [^35S].
The Bradford assay was then conducted to determine the concentration of the membrane protein using BSA as the standard. Suitable dilutions of membrane protein, [^35S]GTPγS), cold GTPγS, DAMGO and GDP were made in TME. The desired amount of the protein per tube was 10 μg. All the test-tubes were vortexed and incubated in the shaking water bath at 30° C. for 90 minutes, after which bound radioligand was filtered and rinsed three times with cold Tris buffer. The filtered bound radioligand was then transferred into scintillation tubes with 4 mL of scintillation fluid and radioligand was quantified. However, counting was delayed for 9 hrs to allow the radioactivity to enter the solution. Percent DAMGO stimulation was defined as (net stimulated binding of test compound/net stimulated binding of DAMGO)×100%. The normalized data were subjected to nonlinear regression analysis to determine EC50 and Emax values using Prism 6.0 software (GraphPad Software, San Diego, Calif.). The assay was performed in triplicate and repeated at least three times.

KOR = KOR (Homo sapiens (Human), UniProt P41145); assay: Competition binding assay at KOR ([3H]DPN, CHO cell membranes)
Experimental: as §1, §2, §3

morphine-pelleted mice = assay: Opioid withdrawal assay in chronic morphine-exposed (pelleted) mice
Experimental: (§4) For the in vivo studies, male Swiss Webster mice were used for both the warm-water immersion and opioid withdrawal assays. The mice weighed 23-35 g and were housed five to a cage in animal care quarters maintained at 22° C. on a 12 hour light-dark cycle with food and water available ad libitum. The mice were transferred to the test room and the tests were then conducted 18 hours later. Protocols and procedures were approved by the Institutional Animal Care and Use Committee at Virginia Commonwealth University Medical Center and complied with the recommendations of the International Association for the Study of Pain.
A 75 mg morphine pellet was implanted in to the base of the neck of the mice and the mice were then given time to recover in their home cages before the test was conducted. The mice were then allowed for 30 min habituation to an open-topped, square, clear Plexiglas observation chamber (26×26×26 cm^3) with lines partitioning the bottom into quadrants before they were given antagonist. All drugs and test compounds were administered subcutaneously (s.c.). […] Withdrawal commenced within 3 min after antagonist administration. Escape jumps, paw tremors and wet dog shakes were quantified by counting their occurrences over 20 min for each mouse using five mice per drug. The data is given as the mean±SEM. One-way ANOVA followed by the post hoc Dunnett test were performed to assess significance using the Prism 6.0 software.

Swiss Webster mice = assay: Warm-water tail immersion assay, blockage of the antinociceptive effect of morphine; conditions: for Blockage of morphine-mediated antinociception: 10 mg/kg s.c. 5 min before morphine 10 mg/kg, tested 20 min after morphine; for AD50 (95% CL), opioid antagonist effect: dose-dependent study against morphine, s.c.
Experimental: FIG. 1A-D. Warm-water tail immersion assay in mice (n=5) at 56±0.1° C. All tested compounds were administered subcutaneously (s.c.). […] Compounds (10 mg/kg) were injected at Time 0. Twenty minutes after injection, tail flick was assessed with hot water. […] Tested compounds (10 mg/kg) were injected at Time 0. Five minutes later, morphine (10 mg/kg) was administered. Twenty minutes after morphine injection, tail flick was tested using hot water.
as §4
Each indole analogue of naltrexamine was tested for its ability to produce antinociception and/or to antagonize the antinociceptive effects of morphine in mice using the warm-water tail immersion assay described by Coderre and Rollman. The a water bath temperature was maintained at 56±0.1° C. The baseline latency (control) was determined before injecting the compounds into the mice. […] To test for agonism, the tail immersion was conducted 20 min (time that morphine effect starts to peak) after injecting the indole analogues of 6α/β-naltrexamine. To prevent tissue damage, a 10 s maximum cut off time was imposed. Antinociceptive response was calculated as the percentage maximum possible effect (% MPE), where % MPE=[(test−control)/(10−control)]×100. In the antagonism study, the 6α/β-naltrexamine derivatives were given 5 min before morphine. The tail immersion test was conducted 20 min after giving morphine. % MPE was calculated for each mouse using at least five mice per drug. AD50 values were calculated using the least-squares linear regression analysis followed by calculation of 95% confidence interval by Bliss method. A higher % MPE indicates a stronger antinociception effect by the ligand.

[1] = [3H]DPN, DOR CHO membranes, read-out: Ki (nM) ± SEM δ
[2] = [3H]DPN, KOR CHO membranes, read-out: Ki (nM) ± SEM κ
[3] = 1 mg/kg s.c., morphine-pelleted mice, counted over 20 min, mean±SEM

DOR, sequence (P41143 whole entry, looked up): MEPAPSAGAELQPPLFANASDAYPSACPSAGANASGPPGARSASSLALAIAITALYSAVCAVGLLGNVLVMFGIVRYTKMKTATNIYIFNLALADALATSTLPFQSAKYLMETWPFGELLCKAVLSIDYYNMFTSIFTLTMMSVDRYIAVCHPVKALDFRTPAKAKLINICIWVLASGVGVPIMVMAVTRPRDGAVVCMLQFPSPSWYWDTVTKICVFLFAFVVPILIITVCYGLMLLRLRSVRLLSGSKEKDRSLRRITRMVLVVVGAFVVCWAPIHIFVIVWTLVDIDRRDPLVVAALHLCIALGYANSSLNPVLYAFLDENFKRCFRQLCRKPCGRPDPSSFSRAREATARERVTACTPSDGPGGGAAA
MOR, sequence (P42866 whole entry, looked up): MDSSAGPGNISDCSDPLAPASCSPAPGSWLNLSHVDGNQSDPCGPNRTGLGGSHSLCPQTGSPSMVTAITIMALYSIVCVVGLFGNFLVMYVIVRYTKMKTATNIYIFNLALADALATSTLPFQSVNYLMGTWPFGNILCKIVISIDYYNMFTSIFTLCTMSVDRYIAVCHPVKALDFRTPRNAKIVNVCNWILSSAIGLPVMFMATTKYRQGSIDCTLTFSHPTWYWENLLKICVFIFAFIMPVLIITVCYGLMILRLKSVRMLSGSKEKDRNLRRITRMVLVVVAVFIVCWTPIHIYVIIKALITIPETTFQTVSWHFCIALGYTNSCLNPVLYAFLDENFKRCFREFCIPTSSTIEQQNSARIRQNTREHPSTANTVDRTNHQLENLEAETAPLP

SMILES	Emax(% DAMGO) ± SEM (MOR) [% DAMGO]	Ki (DOR; [1]) [nM]	Ki (KOR; [2]) [nM]	also measured
Cl.O=C(N[C@@H]1CC[C@@]2(O)[C@H]3Cc4ccc(O)c5c4[C@@]2(CCN3CC2CC2)[C@H]1O5)c1ccc2[nH]ccc2c1 [Compound 13, 17-Cyclopropylmethyl-3,14β-dihydroxy-4,5α-epoxy-6β-(indole-5-carboxamido)morphinan]	20.15 ± 4.37			Ki (DOR): 17.7 ± 4.78 nM; Ki (KOR): 0.512 ± 0.038 nM
Cl.O=C(N[C@H]1CC[C@@]2(O)[C@H]3Cc4ccc(O)c5c4[C@@]2(CCN3CC2CC2)[C@H]1O5)c1ccc2[nH]ccc2c1 [Compound 4, 17-Cyclopropylmethyl-3,14β-dihydroxy-4,5α-epoxy-6α-(indole-5-carboxamido)morphinan]	32.2 ± 1.3	26.7 ± 7.72	3.45 ± 0.994	
Cl.O=C(N[C@H]1CC[C@@]2(O)[C@H]3Cc4ccc(O)c5c4[C@@]2(CCN3CC2CC2)[C@H]1O5)c1cc2ccccc2[nH]1 [Compound 1, 17-Cyclopropylmethyl-3,14β-dihydroxy-4,5α-epoxy-6α-(indole-2-carboxamido)morphinan]	52.0 ± 13.5	14.2 ± 2.78	0.926 ± 0.125	
Cl.O=C(Cc1c[nH]c2ccccc12)N[C@H]1CC[C@@]2(O)[C@H]3Cc4ccc(O)c5c4[C@@]2(CCN3CC2CC2)[C@H]1O5 [Compound 7, 17-Cyclopropylmethyl-3,14β-dihydroxy-4,5α-epoxy-6α-[2-(indol-3-yl)acetamido)morphinan]	33.88 ± 1.43	9.17 ± 2.67	3.13 ± 0.449	
O=C1CC[C@@]2(O)[C@H]3Cc4ccc(O)c5c4[C@@]2(CCN3CC2CC2)[C@H]1O5 [NTX, naltrexone, reference compound]				Escape jumps (morphine-pelleted mice; [3]): 39.0±14.2 times; Paw tremors (morphine-pelleted mice; [3]): 43.4±15.7; Wet-dog shakes (morphine-pelleted mice; [3]): 18.6±1.2 times; Diarrhea (morphine-pelleted mice; 1 mg/kg, morphine pelleted mice (not in placebo pelleted mice)): produced diarrhea
O=C(N[C@@H]1CC[C@@]2(O)[C@H]3Cc4ccc(O)c5c4[C@@]2(CCN3CC2CC2)[C@H]1O5)c1c[nH]c2ccccc12 [Compound 11, 17-Cyclopropylmethyl-3,14β-dihydroxy-4,5α-epoxy-6β-(indole-3-carboxamido)morphinan]				Ki (DOR): 7.17 ± 1.23 nM; Ki (KOR): 0.16 ± 0.005 nM
Cl.O=C(N[C@H]1CC[C@@]2(O)[C@H]3Cc4ccc(O)c5c4[C@@]2(CCN3CC2CC2)[C@H]1O5)c1ccc2cc[nH]c2c1 [Compound 5, 17-Cyclopropylmethyl-3,14β-dihydroxy-4,5α-epoxy-6α-(indole-6-carboxamido)morphinan]	27.0 ± 0.31	12.8 ± 3.36	1.63 ± 0.277	
Cl.O=C(N[C@H]1CC[C@@]2(O)[C@H]3Cc4ccc(O)c5c4[C@@]2(CCN3CC2CC2)[C@H]1O5)c1c[nH]c2ccccc12 [Compound 2, 17-Cyclopropylmethyl-3,14β-dihydroxy-4,5α-epoxy-6α-(indole-3-carboxamido)morphinan]	35.4 ± 4.8	10.5 ± 2.89	0.984 ± 0.125	
Cl.O=C(N[C@@H]1CC[C@@]2(O)[C@H]3Cc4ccc(O)c5c4[C@@]2(CCN3CC2CC2)[C@H]1O5)c1cccc2[nH]ccc12 [Compound 12, 17-Cyclopropylmethyl-3,14β-dihydroxy-4,5α-epoxy-6β-(indole-4-carboxamido)morphinan]	15.21 ± 3.13			Ki (DOR): 45.9 ± 16.3 nM; Ki (KOR): 1.94 ± 0.299 nM
O=C(N[C@@H]1CC[C@@]2(O)[C@H]3Cc4ccc(O)c5c4[C@@]2(CCN3CC2CC2)[C@H]1O5)c1ccc2cc[nH]c2c1 [Compound 14, 17-Cyclopropylmethyl-3,14β-dihydroxy-4,5α-epoxy-6β-(indole-6-carboxamido)morphinan]				Ki (DOR): 6.23 ± 0.825 nM; Ki (KOR): 0.166 ± 0.012 nM
Cl.O=C(N[C@H]1CC[C@@]2(O)[C@H]3Cc4ccc(O)c5c4[C@@]2(CCN3CC2CC2)[C@H]1O5)c1cccc2[nH]ccc12 [Compound 3, 17-Cyclopropylmethyl-3,14β-dihydroxy-4,5α-epoxy-6α-(indole-4-carboxamido)morphinan]	28.9 ± 1	9.26 ± 2.83	1.49 ± 0.349	
Cl.O=C(CCCc1c[nH]c2ccccc12)N[C@H]1CC[C@@]2(O)[C@H]3Cc4ccc(O)c5c4[C@@]2(CCN3CC2CC2)[C@H]1O5 [Compound 9, 17-Cyclopropylmethyl-3,14β-dihydroxy-4,5α-epoxy-6α-[4-(indol-3-yl)butanamido)morphinan]	48.36 ± 5.17	6.73 ± 0.396	0.149 ± 0.033	
Cl.O=C(CCc1c[nH]c2ccccc12)N[C@@H]1CC[C@@]2(O)[C@H]3Cc4ccc(O)c5c4[C@@]2(CCN3CC2CC2)[C@H]1O5 [Compound 17, 17-Cyclopropylmethyl-3,14β-dihydroxy-4,5α-epoxy-60-[3-(indol-3-yl)propanamido)morphinan]	40.43 ± 5.28	49 ± 4.72	0.387 ± 0.045	Blockage of morphine-mediated antinociception (Swiss Webster mice): effectively blocked morphine-mediated antinociception; AD50 (95% CL), opioid antagonist effect (Swiss Webster mice): 7.30 (3.38-15.74) mg/kg
Cl.O=C(CCCc1c[nH]c2ccccc12)N[C@@H]1CC[C@@]2(O)[C@H]3Cc4ccc(O)c5c4[C@@]2(CCN3CC2CC2)[C@H]1O5 [Compound 18, 17-Cyclopropylmethyl-3,14β-dihydroxy-4,5α-epoxy-6β-[4-(indol-3-yl)butanamido)morphinan]	36.29 ± 4.11	25.3 ± 4.34	0.175 ± 0.037	Blockage of morphine-mediated antinociception (Swiss Webster mice): effectively blocked morphine-mediated antinociception; AD50 (95% CL), opioid antagonist effect (Swiss Webster mice): 9.64 (3.17-29.29) mg/kg
Cl.O=C(CCc1c[nH]c2ccccc12)N[C@H]1CC[C@@]2(O)[C@H]3Cc4ccc(O)c5c4[C@@]2(CCN3CC2CC2)[C@H]1O5 [Compound 8, 17-Cyclopropylmethyl-3,14β-dihydroxy-4,5α-epoxy-6α-[3-(indol-3-yl)propanamido)morphinan]	41.10 ± 6.54	31.2 ± 8.12	1.36 ± 0.178	
